Assay [1] deals with T1, progesterone receptor (Oryctolagus cuniculus, UniProt P06186).
T1 construct: in the cytosol obtained from estrogen-primedimmature rabbit uterus; from tissue; host or cells: uterine cytosol of estrogen-primed immature female rabbits
T1 sequence (P06186 1-930): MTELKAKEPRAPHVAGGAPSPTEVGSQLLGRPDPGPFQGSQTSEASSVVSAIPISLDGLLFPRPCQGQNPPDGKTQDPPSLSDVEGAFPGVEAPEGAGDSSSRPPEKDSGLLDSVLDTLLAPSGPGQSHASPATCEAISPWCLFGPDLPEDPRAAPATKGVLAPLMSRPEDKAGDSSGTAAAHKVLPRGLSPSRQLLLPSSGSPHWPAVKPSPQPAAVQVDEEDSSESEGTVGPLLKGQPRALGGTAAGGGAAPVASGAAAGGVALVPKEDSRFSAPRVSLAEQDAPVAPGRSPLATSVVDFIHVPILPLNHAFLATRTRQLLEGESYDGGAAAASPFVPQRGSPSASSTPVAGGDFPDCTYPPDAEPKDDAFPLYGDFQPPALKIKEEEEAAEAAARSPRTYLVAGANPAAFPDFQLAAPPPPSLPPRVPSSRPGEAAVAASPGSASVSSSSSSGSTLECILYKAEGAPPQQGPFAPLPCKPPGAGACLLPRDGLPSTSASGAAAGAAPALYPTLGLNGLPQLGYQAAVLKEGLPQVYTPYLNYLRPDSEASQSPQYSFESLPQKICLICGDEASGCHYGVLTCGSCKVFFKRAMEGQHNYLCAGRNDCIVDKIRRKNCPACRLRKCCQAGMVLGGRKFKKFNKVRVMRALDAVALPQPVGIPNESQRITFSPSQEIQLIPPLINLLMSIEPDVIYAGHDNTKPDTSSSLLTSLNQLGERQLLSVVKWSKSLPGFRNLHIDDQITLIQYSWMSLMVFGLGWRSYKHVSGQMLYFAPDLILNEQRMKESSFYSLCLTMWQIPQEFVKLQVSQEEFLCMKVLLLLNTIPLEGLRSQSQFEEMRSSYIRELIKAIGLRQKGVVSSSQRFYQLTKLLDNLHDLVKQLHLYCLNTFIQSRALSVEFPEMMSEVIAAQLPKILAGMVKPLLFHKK
Kind of assay: Relative binding affinity to progesterone receptor in uterine cytosol (displacement of tritium-labeled progesterone). Further details: species or system rabbit (estrogen-primed immature female). The conditions noted are these: for P-RBA/G-RBA: ratio of RBA values for progesterone receptor to glucocorticoid receptor; for Progestin RBA: relative to progesterone (=100), rabbit uterine cytosol. The procedure: (§1) The in vitro activity of the subject compounds was determined by measuring the binding affinities (RBA) of these compounds relative to progesterone for the progesterone receptor in the cytosol obtained from estrogen-primedimmature rabbit uterus and by measuring the RBA relative to dexamethasone for the glucocorticoid receptor from thymus of adrenalectomized rats. These assays were carried out by the procedures of J. R. Reel et al., Fertility and Sterility, 31, 552 (1979) (progesterone) and G. P. Chrousos et al., Endocrinology, 107, 472 (1980) (glucocorticoid).
^a Relative ability to displace tritiumlabeled progesterone from the
receptor in uterine cytosol from estrogenprimed immature female rabbits a
compared with progesterone (=100).

In assay [2] the target is T2, glucocorticoid receptor (Rattus norvegicus, UniProt P06536).
T2 construct: glucocorticoid receptor from thymus of adrenalectomized rats; from tissue; host or cells: thymus of adrenalectomized rats
T2 sequence (P06536 1-795): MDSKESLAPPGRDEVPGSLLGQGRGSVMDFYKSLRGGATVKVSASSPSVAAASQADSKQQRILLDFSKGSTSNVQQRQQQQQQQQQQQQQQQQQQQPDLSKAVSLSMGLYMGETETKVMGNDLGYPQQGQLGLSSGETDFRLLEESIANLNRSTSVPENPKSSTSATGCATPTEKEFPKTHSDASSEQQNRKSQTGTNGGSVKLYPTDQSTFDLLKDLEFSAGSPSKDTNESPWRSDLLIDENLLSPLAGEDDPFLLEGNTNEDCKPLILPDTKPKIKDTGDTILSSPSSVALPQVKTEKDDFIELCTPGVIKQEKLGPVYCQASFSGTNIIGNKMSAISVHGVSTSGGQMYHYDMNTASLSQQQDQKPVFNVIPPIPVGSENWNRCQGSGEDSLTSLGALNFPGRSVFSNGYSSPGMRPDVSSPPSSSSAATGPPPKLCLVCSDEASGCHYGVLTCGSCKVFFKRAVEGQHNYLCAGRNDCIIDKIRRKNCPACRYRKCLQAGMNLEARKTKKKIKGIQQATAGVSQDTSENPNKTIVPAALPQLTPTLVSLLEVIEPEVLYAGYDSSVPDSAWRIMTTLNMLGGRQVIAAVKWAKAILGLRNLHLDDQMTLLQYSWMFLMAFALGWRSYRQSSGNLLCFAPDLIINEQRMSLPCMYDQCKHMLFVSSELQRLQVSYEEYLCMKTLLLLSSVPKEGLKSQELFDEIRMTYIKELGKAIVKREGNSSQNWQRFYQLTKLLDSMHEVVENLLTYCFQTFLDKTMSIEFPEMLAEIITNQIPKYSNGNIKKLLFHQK
Kind of assay: Relative binding affinity to glucocorticoid receptor of thymus (displacement of tritium-labeled dexamethasone). Also noted: species or system rat (adrenalectomized). The settings on record: relative to dexamethasone (=100). The procedure:
as §1
^b Relative ability to displace tritiumlabeled dexamethasone from the
receptor of the thymus of adrenalectomized rats as compared to […]

Assay [3] deals with endometrial response due to subcutaneous administration of progesterone. The assay is described as follows: Anti-McGinty intrauterine antiprogestational test. The settings on record: for ED90 (actual dose) / ED50 / ED90 (calculated): intrauterine; for ED90 (actual dose): actual dose giving ≥ 90% inhibition; for ED50 / ED90 (calculated): from % Inhib = a + b · ln dose. Type of assay: in vivo, estrogen-primed immature female rabbits. As for the experimental part: The antiprogestational activity of the compounds was studied after both intrauterine and oral administration. In each case the compound was tested for its ability to inhibit the endometrial response due to subcutaneous administration of progesterone to estrogen-primed immature female rabbits. The methodology used for the intrauterine test has been described by D. A. McGinty et al. See Endocrinology, 24, 829 (1939). For oral administration of test compounds, the method used was analogous to that of Clauberg. See Clauberg, Zentr. Gynakol., 54, 2757 (1930) as modified by McPhail J. Physiol. (London), 83, 145 (1935). Each active compound was characterized by a dose-related ability to block the progestational effect of simultaneously administered progesterone. When the percent inhibition was plotted versus the log of the dose, linear relationships were obtained. Linear regression analysis permitted calculation of the ED50 and ED90 values (the doses required for 50% and 90% inhibition of the progesterone effect, respectively). The actual dose which gave 90% or more inhibition is also given, although this value is probably less accurate than the calculated values which are based on the dose-response line. […] Since the intrauterine administration bypasses most of the drug-metabolizing systems of the body, especially the liver, intrinsic activity is expected to correlate reasonably well with binding activity to the receptor, according to currently held hypotheses regarding receptor binding.

Assay [4] shares this test system. The assay is described as follows: Oral antiprogestational activity (Anti-Clauberg). Type of assay: in vivo, estrogen-primed immature female rabbits. The conditions noted are these: progesterone alone, total SC dose 0.8 mg, no oral compound, N=6. As for the experimental part:
The antiprogestational activity of the compounds was studied after both intrauterine and oral administration. In each case the compound was tested for its ability to inhibit the endometrial response due to subcutaneous administration of progesterone to estrogen-primed immature female rabbits. The methodology used for the intrauterine test has been described by D. A. McGinty et al. See Endocrinology, 24, 829 (1939). For oral administration of test compounds, the method used was analogous to that of Clauberg. See Clauberg, Zentr. Gynakol., 54, 2757 (1930) as modified by McPhail J. Physiol. (London), 83, 145 (1935).

“Also recorded” adds a separate entry of the source.

Consider `CC(=O)O[C@]1(C(C)=O)CC[C@H]2[C@@H]3CCC4=CC(=O)CCC4=C3[C@@H](c3ccc(N(C)C)cc3)C[C@@]21C` [Compound 8a, 17α-acetoxy-11β-(4-N,N-dimethylaminophenyl)-19-norpregna-4,9-diene-3,20-dione], for which, in assay [1], the P-RBA/G-RBA is given as 0.24 and the “Progestin RBA” value worked out at 47. The “Glucocort. RBA” value in assay [2] is 198. In addition, in assay [3], the “ED90 (actual dose)” value was found to be 2.0 µg, the ED50 came out at 0.41 µg and the “ED90 (calculated)” value is 1.2 µg.
`CC(=O)C1=CC[C@H]2[C@@H]3CCC4=CC(=O)CCC4=C3[C@@H](c3ccc(N(C)C)cc3)C[C@]12C` [Compound 23, 11β-(4-N,N-Dimethylaminophenyl)-19-norpregna-4,9,16-triene-3,20-dione]: in assay [1], the “binding to the progesterone receptor (in words)” value is listed as “binds relatively weakly to the progesterone receptor” and the “Progestin RBA” value is listed as 8. In assay [1] (compared with the 17α-acetoxy compounds), the “RBA as fraction of the value of the 17α-acetoxy compounds” value is given as “less than one-fifth”. In assay [3], the “ED90 (actual dose)” value amounted to 1.0 µg, the ED50 amounted to 0.26 µg and the “ED90 (calculated)” value is 0.81 µg. The “antiprogestational activity in vivo (in words)” value in assay [3] (rabbit, in vivo, listed as Δ-16 compound) is listed as “even more potent activity; also recorded: exhibits strong antiprogestational activity”.
Regarding `CC[C@@H]1C[C@H]2[C@@H]3C[C@@H](C)C4=CC(=O)CCC4=C3[C@@H](c3ccc(N(C)C)cc3)C[C@]2(C)[C@H]1C(C)=O` [H, Et, β-CH3, 68-methyl-16α-ethyl-118-(4-N,N-dimethylaminophenyl)-19-norpregna-4,9-diene-3,20-dione], in assay [1], the P-RBA/G-RBA came out at 0.45 and the “Progestin RBA” value is 48. Besides, in assay [2], the “Glucocort. RBA” value is 106.
For the compound `CC(=O)O[C@]1(C(C)=O)CC[C@H]2[C@@H]3C[C@@H](C)C4=CC(=O)CCC4=C3[C@@H](c3ccc(N(C)C)cc3)C[C@@]21C` [OAc, H, β-CH3], the “Progestin RBA” value in assay [1] turned out to be 15.
For the compound `CC(=O)[C@@]1(O)CC[C@H]2[C@@H]3CCC4=CC(=O)CCC4=C3[C@@H](c3ccc(N(C)C)cc3)C[C@@]21C` [OH, H, H], in assay [1], the P-RBA/G-RBA came out at 0.37 and the “Progestin RBA” value amounted to 15. For the same compound, the “Glucocort. RBA” value in assay [2] came out at 41.
Take `CC(=O)[C@@]1(O)CC[C@H]2[C@@H]3C[C@H](C)C4=CC(=O)CCC4=C3[C@@H](c3ccc(N(C)C)cc3)C[C@@]21C` [OH, H, α-CH3]: in assay [1], the P-RBA/G-RBA turned out to be 0.26 and the “Progestin RBA” value was 46. In addition, in assay [2], the “Glucocort. RBA” value stood at 175.
With `CC(=O)[C@H]1CC[C@H]2[C@@H]3CCC4=CC(=O)CC[C@]4(C)[C@H]3CC[C@]12C` [Progesterone, progesterone], the “Wt of Uterus” value in assay [4] (± SD) is 3.06 ± 0.45 g. Moreover, in assay [4] (scale 0-4), the “McPhail Index” value was 3.96 ± 0.04.

(Values after patent US4954490A, “11 β-substituted progesterone analogs” (Research Triangle Institute, priority 1988, dated 1990).)
